In patent EP4603105A1, “PHARMACEUTICAL COMPOSITION CONTAINING CYCLIC COMPOUND HAVING SELECTIVE KRAS INHIBITORY EFFECT AGAINST HRAS AND NRAS” (CHUGAI SEIYAKU KABUSHIKI KAISHA, priority 2022, dated 2024):
Like-named read-outs stand apart in the source and are kept apart here. Where a SMILES comes first, the peptide text is derived from it. Bridges are numbered along the chain shown (N, C = ends). [ ]: non-standard residue; d: D form. The star is where a group is joined. hPhe(3,5-F2-4-CF3) = N[C@@H](CCc1cc(F)c(C(F)(F)F)c(F)c1)C(=O)O; hPhe(3-Cl-4-CF3) = N[C@@H](CCc1ccc(C(F)(F)F)c(Cl)c1)C(=O)O; NPrPhe(4-CF3) = CCCN[C@@H](Cc1ccc(C(F)(F)F)cc1)C(=O)O; NEtPhe(4-Me) = CCN[C@@H](Cc1ccc(C)cc1)C(=O)O; NMeGly(cPent) = CN[C@H](C(=O)O)C1CCCC1; Nva(3-Et) = CCC(CC)[C@H](N)C(=O)O; NMeD = CN[C@@H](CC(=O)O)C(=O)O; NMeL = CN[C@@H](CC(C)C)C(=O)O; Morpholide = C1CN(*)CCO1; NMeA = CN[C@@H](C)C(=O)O; Ac5c = NC1(C(=O)O)CCCC1; Aze = O=C(O)[C@@H]1CCN1; NEtG = CCNCC(=O)O; Sar = CNCC(=O)O

How the values were obtained:
[1] = target: GDP-bound NRAS wild-type protein (Homo sapiens, UniProt P01111); assay: Binding to NRAS by surface plasmon resonance (SPR), KD and KD ratio to KRAS
In short: (§1)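 GDP-bound biotin-Avi RAS captured at ~100–300 RU, 30°C, pH 7.4 HBS containing 10 µM GDP, 10 mM MgCl2, 1 mM DTT, 0.01% Tween 20 and 4% DMSO. KD by 1:1 fitting.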

[2] = test system: human lung cancer strain NCI-H441; assay type: cell-based
In short: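 Readout: […] after the ATP-based reagent. Compound: serial dilutions in dimethyl sulfoxide.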

[3] = target: HRAS wild-type protein (Homo sapiens, UniProt P01112); assay: Binding to HRAS by surface plasmon resonance (SPR), KD and KD ratio to KRAS
In short: as §1

[4] = ratio of KD for GDP-bound NRAS wild-type protein to KD for KRAS
[5] = ratio of KD for HRAS wild-type protein to KD for KRAS
[6] = ratio of the KD value with respect to GDP-bound NRAS wild-type protein to the KD value with respect to KRAS
[7] = ratio of the KD value with respect to HRAS wild-type protein to the KD value with respect to KRAS
[8] = ratio of KD value for GDP-bound NRAS wild-type protein to KD value for KRAS (SPR)
[9] = ratio of KD value for HRAS wild-type protein to KD value for KRAS (SPR)

GDP-bound NRAS wild-type protein, sequence (P01111 whole entry): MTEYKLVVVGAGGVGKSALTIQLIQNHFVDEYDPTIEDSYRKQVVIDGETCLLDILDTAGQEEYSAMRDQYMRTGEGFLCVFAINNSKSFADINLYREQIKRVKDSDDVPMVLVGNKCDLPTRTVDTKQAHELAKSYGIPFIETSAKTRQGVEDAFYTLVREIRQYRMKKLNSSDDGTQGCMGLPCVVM
HRAS wild-type protein, sequence (P01112 whole entry): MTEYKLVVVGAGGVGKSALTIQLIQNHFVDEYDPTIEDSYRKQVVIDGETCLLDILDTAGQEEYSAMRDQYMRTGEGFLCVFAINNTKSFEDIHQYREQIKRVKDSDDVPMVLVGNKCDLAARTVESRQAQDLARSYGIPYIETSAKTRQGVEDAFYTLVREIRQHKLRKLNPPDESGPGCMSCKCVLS

Row | IC50 [2] [nM] | SMILES | NRAS /KRAS [1, 4] | HRAS /KRAS [3, 5] | NRAS /KRAS [1, 6] | HRAS /KRAS [3, 7] | NRAS /KRAS [1, 8] | HRAS /KRAS [3, 9] | IC50 ([2]; NCI-H441 cells, 4 days, CellTiter-Glo, read-out: NCl-H441 IC50) [nM]
1 | 40.9 | CCCN1C(=O)[C@@H]2CCN2C(=O)CN(C)C(=O)[C@H](C(CC)CC)NC(=O)[C@H](CC(C)C)N(C)C(=O)C[C@@H](C(=O)N2CCOCC2)N(C)C(=O)[C@H](C2CCCC2)N(C)C(=O)C2(CCCC2)NC(=O)[C@@H]2CCCN2C(=O)[C@H](CCc2cc(F)c(C(F)(F)F)c(F)c2)NC(=O)CN(C)C(=O)[C@@H]1Cc1ccc(C(F)(F)F)cc1 [PP0804] ([NMeL][Nva(3-Et)][Sar][Aze][NPrPhe(4-CF3)][Sar][hPhe(3,5-F2-4-CF3)]P[Ac5c][NMeGly(cPent)][NMeD]-Morpholide; lactam N-11) | C (A compound having a KD ratio of 0.1 or more and less than 3 is denoted as C) | B (a compound having 3 or more and less than 10 is denoted as B) | – | – | – | – | –
2 | 24.4 | CC[C@H](C)[C@@H]1NC(=O)[C@H](C)N(C)C(=O)C[C@@H](C(=O)N(C)C)N(C)C(=O)[C@H](C2CCCC2)N(C)C(=O)C2(CCCC2)NC(=O)[C@@H]2CC(F)(F)CN2C(=O)[C@H](CCc2cc(F)c(C(F)(F)F)c(F)c2)NC(=O)CN(C)C(=O)[C@H](Cc2ccc(C(F)(F)F)cc2)N2CCCCC[C@@H](C2=O)N(C)C(=O)CN(C)C1=O [PP0472] | – | – | B (a compound having 3 or more and less than 10 is denoted as B) | B (a compound having 3 or more and less than 10 is denoted as B) | – | – | –
3 | 20.6 | CC[C@H](C)[C@@H]1NC(=O)[C@H](CC(C)C)N(C)C(=O)C[C@@H](C(=O)N2CCOCC2)N(C)C(=O)[C@H](C2CCCC2)N(C)C(=O)C2(CCCC2)NC(=O)[C@@H]2CCCN2C(=O)[C@H](CCc2ccc(C(F)(F)F)c(Cl)c2)NC(=O)CN(CC)C(=O)[C@H](Cc2ccc(C)cc2)N(CC)C(=O)[C@@H]2CCN2C(=O)[C@H](C)N(C)C1=O [PP0006] ([NMeL]I[NMeA][Aze][NEtPhe(4-Me)][NEtG][hPhe(3-Cl-4-CF3)]P[Ac5c][NMeGly(cPent)][NMeD]-Morpholide; lactam N-11) | C (A compound having a KD ratio of 0.1 or more and less than 3 is denoted as C) | C (A compound having a KD ratio of 0.1 or more and less than 3 is denoted as C) | – | – | – | – | –
4 | 88.8 | CC[C@H](C)[C@@H]1NC(=O)[C@H](CC2CC2)N(C)C(=O)C[C@@H](C(=O)N(C)C)N(C)C(=O)[C@H](C2CCCC2)N(C)C(=O)C2(CCC2)NC(=O)[C@@H]2C[C@@H](C)CN2C(=O)[C@H](CCc2ccc(C(F)(F)F)c(OC)c2)NC(=O)CN(C)C(=O)[C@H](Cc2ccc(C)cc2)N2CC/C=C\C[C@@H](C2=O)N(C)C(=O)CN(C)C1=O [PP1863] | – | – | – | – | A (a compound having 10 or more and less than 20 is denoted as A) | A (a compound having 10 or more and less than 20 is denoted as A) | –
5 | 5.5 | CCCN(C)C(=O)[C@@H]1CC(=O)N(C)[C@@H](CC2CC2)C(=O)N[C@@H]([C@@H](C)CC)C(=O)N(C)CC(=O)N(C)[C@H]2C/C=C\CCN(C2=O)[C@@H](Cc2ccc(C(F)(F)F)cc2)C(=O)N(C)CC(=O)N[C@@H](CCc2cc(F)c(C(F)(F)F)c(F)c2)C(=O)N2C[C@H](OCC)C[C@H]2C(=O)NC2(CC(F)(F)C2)C(=O)N(C)[C@@H](C2CCCC2)C(=O)N1C [PP1739] | – | – | – | – | AA (a compound having 20 or more is denoted as AA) | AA (a compound having 20 or more is denoted as AA) | –
6 | 133 | CCC[C@H]1C(=O)N[C@@H]([C@@H](C)CC)C(=O)N2CCC[C@H]2C(=O)N(C)[C@H]2C/C=C\CCN(C2=O)[C@@H](CC2CCCCC2)C(=O)N(C)CC(=O)N[C@@H](CCc2ccc(C(F)(F)F)c(OC)c2)C(=O)N2C[C@H](OCC)C[C@H]2C(=O)N(C)C2(CCC2)C(=O)N(C)[C@@H](C(CC)CC)C(=O)N(C)[C@H](C(=O)N(C)C)CC(=O)N1C [PP2341] | – | – | A (a compound having 10 or more and less than 20 is denoted as A) | A (a compound having 10 or more and less than 20 is denoted as A) | – | – | –
7 | 1.4 | CC[C@H](C)[C@@H]1NC(=O)[C@H](CC)N(C)C(=O)C[C@@H](C(=O)N(C)C)N(C)C(=O)[C@H](C2CCCC2)N(C)C(=O)C2(CC(C)(C)C2)NC(=O)[C@@H]2C[C@H](C)CN2C(=O)[C@H](CCc2cc(F)c(C(F)(F)F)c(F)c2)NC(=O)CN(C)C(=O)[C@H](Cc2ccc(C)cc2)N2CC/C=C\C[C@@H](C2=O)N(C)C(=O)CN(C)C1=O [PP1856] | – | – | – | – | A (a compound having 10 or more and less than 20 is denoted as A) | A (a compound having 10 or more and less than 20 is denoted as A) | –
8 | 8.2 | CCCN1C(=O)CN(C)C(=O)CN(C)C(=O)[C@H]([C@@H](C)CC)NC(=O)[C@H](CC(C)C)N(C)C(=O)C[C@@H](C(=O)N2CCOCC2)N(C)C(=O)[C@H](C2CCCC2)N(C)C(=O)C2(CCCC2)NC(=O)[C@@H]2CCCN2C(=O)[C@H](CCc2cc(F)c(C(F)(F)F)c(F)c2)NC(=O)CN(C)C(=O)[C@@H]1Cc1ccc(C(F)(F)F)cc1 [PP0753] ([NMeL]I[Sar][Sar][NPrPhe(4-CF3)][Sar][hPhe(3,5-F2-4-CF3)]P[Ac5c][NMeGly(cPent)][NMeD]-Morpholide; lactam N-11) | – | – | B (a compound having 3 or more and less than 10 is denoted as B) | C (A compound having a KD ratio of 0.1 or more and less than 3 is denoted as C) | – | – | –
9 | 4.9 | C#CC[C@H]1C(=O)N[C@@H]([C@@H](C)CC)C(=O)N(C)CC(=O)N(C)[C@H]2C/C=C\CCN(C2=O)[C@@H](Cc2ccc(C(F)(F)F)cc2)C(=O)N(C)CC(=O)N[C@@H](CCc2ccc(C(F)(F)F)c(OC)c2)C(=O)N2C[C@H](OCC)C[C@H]2C(=O)NC2(CCC2)C(=O)N(C)[C@@H](C2CCCC2)C(=O)N(C)[C@H](C(=O)N(C)CCC)CC(=O)N1C [PP2059] | – | – | A (a compound having 10 or more and less than 20 is denoted as A) | A (a compound having 10 or more and less than 20 is denoted as A) | – | – | –
10 | 21.5 | CC[C@H](C)[C@@H]1NC(=O)[C@H](CC(C)C)N(C)C(=O)C[C@@H](C(=O)N2CCOCC2)N(C)C(=O)[C@H](C2CCCC2)N(C)C(=O)C2(CCCC2)NC(=O)[C@@H]2CCCN2C(=O)[C@H](CCc2cc(F)c(C(F)(F)F)c(F)c2)NC(=O)CN(C)C(=O)[C@H](Cc2ccc(C(F)(F)F)cc2)N2CCCC[C@@H](C2=O)N(C)C(=O)[C@@H]2CCCN2C1=O [PP0547] | – | – | B (a compound having 3 or more and less than 10 is denoted as B) | B (a compound having 3 or more and less than 10 is denoted as B) | – | – | –
11 | 15.1 | CC[C@H](C)[C@@H]1NC(=O)[C@H](CC(C)C)N(C)C(=O)C[C@@H](C(=O)N2CCOCC2)N(C)C(=O)[C@H](C2CCCC2)N(C)C(=O)C2(CCCC2)NC(=O)[C@@H]2CCCN2C(=O)[C@H](CCc2ccc(C(F)(F)F)c(Cl)c2)NC(=O)CN(C)C(=O)[C@H](Cc2ccc(C(F)(F)F)cc2)N2CC=CC[C@@H](C2=O)N(C)C(=O)CN(C)C1=O [PP0462] | – | – | C (A compound having a KD ratio of 0.1 or more and less than 3 is denoted as C) | C (A compound having a KD ratio of 0.1 or more and less than 3 is denoted as C) | – | – | –
12 | 17.9 | CCOC1CC2C(=O)NC3(CCC3)C(=O)N(C)C(C(C)CC)C(=O)N(C)[C@H](C(=O)N3CCOCC3)CC(=O)N(C)[C@@H](CC(C)C)C(=O)N[C@@H]([C@@H](C)CC)C(=O)N(C)CC(=O)N(C)[C@H]3CCCCN(C3=O)[C@@H](Cc3ccc(C(F)(F)F)cc3)C(=O)N(C)CC(=O)N[C@@H](CCc3cc(F)c(C(F)(F)F)c(F)c3)C(=O)N2C1 (stereo partly drawn) [PP0812] | B (a compound having 3 or more and less than 10 is denoted as B) | B (a compound having 3 or more and less than 10 is denoted as B) | – | – | – | – | –
13 | 2.2 | CCC[C@H]1C(=O)N[C@@H]([C@@H](C)CC)C(=O)N(C2CC2)CC(=O)N(C)[C@H]2C/C=C\CCN(C2=O)[C@@H](Cc2ccc(C)cc2)C(=O)N(C)CC(=O)N[C@@H](CCc2ccc(C(F)(F)F)c(OC)c2)C(=O)N2C[C@H](OCC)C[C@H]2C(=O)N(C)C2(CCC2)C(=O)N(C)[C@@H](C2CCCC2)C(=O)N(C)[C@H](C(=O)N(C)C)CC(=O)N1C [PP2328] | – | – | A (a compound having 10 or more and less than 20 is denoted as A) | A (a compound having 10 or more and less than 20 is denoted as A) | – | – | –
14 | – | CCOC[C@H]1C(=O)N[C@@H]([C@@H](C)CC)C(=O)N(C)CC(=O)N(C)[C@H]2C/C=C\CCN(C2=O)[C@@H](Cc2ccc(C(C)C)cc2)C(=O)N(C)CC(=O)N[C@@H](CCc2ccc(C(F)(F)F)c(OC)c2)C(=O)N2C[C@@H](C)C[C@H]2C(=O)NC2(CC(C)(C)C2)C(=O)N(C)[C@@H](C2CCCC2)C(=O)N(C)[C@H](C(=O)N(C)CC)CC(=O)N1C [PP2701] | A (a compound having 10 or more and less than 20 is denoted as A) | A (a compound having 10 or more and less than 20 is denoted as A) | – | – | – | – | 21.7

Row | SMILES | IC50 [2] [nM] | NRAS /KRAS [1, 4] | HRAS /KRAS [3, 5] | NRAS /KRAS [1, 6] | HRAS /KRAS [3, 7] | NRAS /KRAS [1, 8] | HRAS /KRAS [3, 9] | IC50 ([2]; NCI-H441 cells, 4 days, CellTiter-Glo, read-out: NCl-H441 IC50) [nM]
15 | CCO[C@@H]1C[C@H]2C(=O)NC3(CC(C)(C)C3)C(=O)N(C)[C@@H](C3CCCC3)C(=O)N(C)[C@H](C(=O)N(C)C)CC(=O)N(C)[C@@H](CC(C)C)C(=O)N[C@@H]([C@@H](C)CC)C(=O)N(C)CC(=O)N(C)[C@H]3C/C=C\CCN(C3=O)[C@@H](Cc3ccc(C(C)=O)cc3)C(=O)N(C)CC(=O)N[C@@H](CCc3ccc(C(F)(F)F)c(OC)c3)C(=O)N2C1 [PP2694] | 12 | A (a compound having 10 or more and less than 20 is denoted as A) | B (a compound having 3 or more and less than 10 is denoted as B) | – | – | – | – | –
